Laboratory results: US8236963B2, “Tricyclic spiro derivatives as CRTH2 modulators” (Merck Serono SA, priority 2005, dated 2012)

molecular target: T1, CRTH2 (Homo sapiens, UniProt Q9Y5Y4); assay: Determination of Ki (radioligand binding assay, equilibrium competition against [3H]PGD2); parameters: expressed in transfected cells; host or cells: HEK293 (EBNA) cells, membrane preparation; conditions: average of at least three independent dose response experiments
T1 sequence (Q9Y5Y4 1-395): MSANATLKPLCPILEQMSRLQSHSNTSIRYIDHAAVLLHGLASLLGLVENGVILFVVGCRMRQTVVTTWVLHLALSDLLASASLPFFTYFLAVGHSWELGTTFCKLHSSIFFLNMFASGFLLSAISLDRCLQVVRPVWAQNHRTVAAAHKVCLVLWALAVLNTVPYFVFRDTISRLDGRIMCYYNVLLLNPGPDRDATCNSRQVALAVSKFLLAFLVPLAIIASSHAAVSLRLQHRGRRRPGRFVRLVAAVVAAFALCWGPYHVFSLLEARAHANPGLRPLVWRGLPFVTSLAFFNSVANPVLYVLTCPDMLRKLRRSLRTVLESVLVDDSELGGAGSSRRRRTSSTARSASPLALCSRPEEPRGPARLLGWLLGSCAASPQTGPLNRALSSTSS
Experimental: The inhibitory activity can be investigated by a radioligand binding assay (Sawyer et al., Br. J. Pharmocol 2002, 137, 1163-72). The radioligand binding assay was performed at room temperature in binding buffer (10 mM HEPES/KOH pH […], with protease inhibitor cocktail tablets), containing 1.5 nM [^3H]PGD2 (Amersham, 156 Cie/mmol), and 10 μg of hCRTH2 HEK293 (EBNA) cell membrane protein in a final volume of 100 μl in 96 well plates (Corning, USA). Non-specific binding was determined in the presence of 1 μM PGD2 (Cayman, USA). Competing spiro-indolinones were diluted in dimethylsulphoxide so that the total volume of dimethylsulfoxide was kept constant at 1% dimethylsulphoxide (Me2SO) Serial dilutions of 100 μM and […] were prepared. 10 μl each of these spiro-indolinone stock solutions were added. Incubation (60 min at room temperature) was terminated by rapid filtration through 96 wells hydrophobic GF/C Unifilter plates (Whatman, USA). Filters were washed twice with 250 μl of Tris-HCl pH 7.4, 10 mM MnCl2, and residual radioligand bound to the filters was mixed to 100 μl of liquid scintillation cocktail (Optiphase Supermix, Perkin Elmer, USA) and binding activity was determined by counting residual radioligand using a 1450 Micro-beta scintillation counter (Wallac, UK). The following representative compounds were tested. All inhibited the binding of PGD2 to CRTH2 by more than 70%. • (1′-benzyl-5-chloro-2,2′,5′-trioxospiro[indole-3,3′-pyrrolidin]-1(2H)-yl)acetic acid • (1′-benzyl-5-fluoro-2,2′,5′-trioxospiro[indole-3,3′-pyrrolidin]-1(2H)-yl)acetic acid • 4-(1′-allyl-5-chloro-2,2′,5′-trioxospiro[indole-3,3′-pyrrolidin]-1(2H)-yl)butanoic acid • [5-chloro-1′-(2-methoxyethyl)-2,2′,5′-trioxospiro[indole-3,3′-pyrrolidin]-1(2H)-yl]acetic acid • 4-(1′-benzyl-5-chloro-2,2′,5′-trioxospiro[indole-3,3′-pyrrolidin]-1(2H)-yl)butanoic acid • (1′-benzyl-5-methoxy-2,2′,5′-trioxospiro[indole-3,3′-pyrrolidin]-1(2H)-yl)acetic acid • [5-fluoro-1′-[(2-methoxyethoxy)methyl]-2,2′,5′-trioxospiro[indole-3,3′-pyrrolidin]-1(2H)-yl]acetic acid • 4-(1′-allyl-5-fluoro-2,2′,5′-trioxospiro[indole-3,3′-pyrrolidin]-1(2H)-yl)butanoic acid • 4-(1′-benzyl-5-fluoro-2,2′,5′-trioxospiro[indole-3,3′-pyrrolidin]-1(2H)-yl)butanoic acid
Ki values were determined by equilibrium competition binding experiments against [^3H]PGD2. Ki values were calculated from the formula below and represent the average of at least three independent dose response experiments. The Ki values give the ligand concentrations necessary to inhibit 50% of the binding of [^3H]PGD2 to CRTH2. Ki=IC50/(1+[Concentration of Ligand]/Kd)]
All experiments were performed in 96 well plates, in a final volume of 100 μl according to the above described filtration assay. The concentration of membranes and 3 [H]PGD2, as well as the positive and negative controls were identical to the conditions described above.

| SMILES | Ki [nM] |
| --- | --- |
| Cn1ccnc1CN1C(=O)CC2(C1=O)C(=O)N(CC(=O)O)c1ccc(Cl)cc12 (stereo not shown) [Compound 32, [5-chloro-1′-[(1-methyl-1H-imidazol-2-yl)methyl]-2,2′,5′-trioxospiro[indole-3,3′-pyrrolidin]-1(2H)-yl]acetic acid] | 1820 |
| O=C(O)CCCN1C(=O)C2(CC(=O)N(Cc3ccc(C(F)(F)F)cc3)C2=O)c2cc(Cl)ccc21 (stereo not shown) [Compound 35, 4-[5-chloro-2,2′,5′-trioxo-1′-[4-(trifluoromethyl)benzyl]spiro[indole-3,3′-pyrrolidin]-1(2H)-yl]butanoic acid] | 681 |
| COc1c(C)cnc(CN2C(=O)CC3(C2=O)C(=O)N(CC(=O)O)c2ccc(Cl)cc23)c1C (stereo not shown) [Compound 75, [5-chloro-1′-[(4-methoxy-3,5-dimethylpyridin-2-yl)methyl]-2,2′,5′-trioxospiro[indole-3,3′-pyrrolidin]-1(2H)-yl]acetic acid] | 510 |
| O=C(O)CN1C(=O)C2(CC(=O)N(Cc3cnc(Cl)cc3Cl)C2=O)c2cc(Cl)ccc21 (stereo not shown) [Compound 76, [5-chloro-1′-[(4,6-dichloropyridin-3-yl)methyl]-2,2′,5′-trioxospiro[indole-3,3′-pyrrolidin]-1(2H)-yl]acetic acid] | 12 |
| O=C(O)CN1C(=O)C2(CC(=O)N(Cc3csc(-c4cccc(Cl)c4)n3)C2=O)c2cc(Cl)ccc21 (stereo not shown) [Compound 103, [5-chloro-1′-{[2-(3-chlorophenyl)-1,3-thiazol-4-yl]methyl}-2,2′,5′-trioxospiro[indole-3,3′-pyrrolidin]-1(2H)-yl]acetic acid] | 6 |
| Cc1onc(-c2ccccc2)c1CN1C(=O)NC2(C1=O)C(=O)N(CC(=O)O)c1ccc(Cl)cc12 (stereo not shown) [Compound 106, [5′-chloro-1-[(5-methyl-3-phenylisoxazol-4-yl)methyl]-2,2′,5-trioxospiro[imidazolidine-4,3′-indol]-1′(2′H)-yl]acetic acid] | 1120 |
| O=C(O)CN1C(=O)C2(NC(=O)N(Cc3ccccc3)C2=O)c2cc(Cl)ccc21 (stereo not shown) [Compound 107, (1-benzyl-5′-chloro-2,2′,5-trioxospiro[imidazolidine-4,3′-indol]-1′(2′H)-yl)acetic acid] | 300 |
| O=C(O)CN1C(=O)C2(NC(=O)N(Cc3ccccc3F)C2=O)c2cc(Cl)ccc21 (stereo not shown) [Compound 108, [5′-chloro-1-(2-fluorobenzyl)-2,2′,5-trioxospiro[imidazolidine-4,3′-indol]-1′(2′H)-yl]acetic acid] | 4.8 |

The remaining lines, values ahead:

| Ki [nM] | SMILES |
| --- | --- |
| 153 | COc1ccccc1CN1C(=O)CC2(C1=O)C(=O)N(CC(=O)O)c1ccc(Cl)cc12 (stereo not shown) [Compound 54, [5-chloro-1′-(2-methoxybenzyl)-2,2′,5′-trioxospiro[indole-3,3′-pyrrolidin]-1(2H)-yl]acetic acid] |
| 75 | O=C(O)CN1C(=O)C2(CC(=O)N(Cc3cccs3)C2=O)c2cc(Cl)ccc21 (stereo not shown) [Compound 77, [5-chloro-2,2′,5′-trioxo-1′-(2-thienylmethyl)spiro[indole-3,3′-pyrrolidin]-1(2H)-yl]acetic acid] |
| 101 | COc1ccnc(CN2C(=O)CC3(C2=O)C(=O)N(CC(=O)O)c2ccc(Cl)cc23)c1OC (stereo not shown) [Compound 78, [5-chloro-1′-[(3,4-dimethoxypyridin-2-yl)methyl]-2,2′,5′-trioxospiro[indole-3,3′-pyrrolidin]-1(2H)-yl]acetic acid] |
| 24 | O=C(O)CN1C(=O)C2(CC(=O)N(Cc3ccccc3F)C2=O)c2cc(Cl)ccc21 (stereo not shown) [Compound 104, [5-chloro-1′-(2-fluorobenzyl)-2,2′,5′-trioxospiro[indole-3,3′-pyrrolidin]-1(2H)-yl]acetic acid] |
| 8.4 | O=C(O)CN1C(=O)[C@]2(CC(=O)N(Cc3ccccc3F)C2=O)c2cc(Cl)ccc21 [Compound 110, (3S)-[5-chloro-1′-(2-fluorobenzyl)-2,2′,5′-trioxospiro[indole-3,3′-pyrrolidin]-1(2H)-yl]acetic acid] |

molecular target: T1, CRTH2; assay: Radioligand binding assay ([3H]PGD2, hCRTH2 HEK293 (EBNA) cell membranes); parameters: expressed in transfected cells; host or cells: HEK293 (EBNA) cells, membrane preparation; conditions: 1.5 nM [3H]PGD2, 10 μg hCRTH2 HEK293 (EBNA) membrane protein, 60 min at room temperature
Description: Human CRTH2 cDNA was amplified by PCR using a human urinary bladder cDNA library as a template and specific primers containing HindIII and BamHI restriction sites for cloning into the pCEP4 vector (Invitrogen). The vector construction is described in detail in Sawyer et al., Br. J. Pharmocol 2002, 137, 1163-72. The nucleotide sequence of the cloned cDNA was identical the previously reported hCRTH2 sequence (Nagata et al, 1999, J. Immunol. 162, 1278-1286).
HEK293 (EBNA) cells were transfected with the pCEP4-hCRTH2 construct using the calcium phosphate technique. Cells were maintained in culture at 37° C. in an atmosphere of 5% CO2 in Dulbecco's modified Eagle's F12 medium (Invitrogen), containing 10% heat-inactivated foetal calf serum (TerraCell International, Canada), 2 mM Glutamine, 100 units/ml of penicillin and 100 μg/ml streptomycin (Invitrogen). 48 hours after the transfection, cells were grown in presence of 300 μg/ml of Hygromycin B (Invitrogen) for 4 weeks and antibiotic resistant cells were amplified for cell membrane preparation.
Adherent HEK293 (EBNA) cells expressing hCRTH2 were cultured in 225 cm^2 cell culture flasks (Corning, USA) in 30 ml of medium. After two rinses of phosphate buffered saline (PBS), cells were harvested in 10 ml of PBS containing 1 mM EDTA, centrifuged at 500×g for 5 min at 4° C. and frozen at −80° C. The pellet was re-suspended in 50 mM Tris-HCl, pH 7.4, 2 mM EDTA, 250 mM Sucrose, containing protease inhibitor cocktail tablets, (Complete EDTA-free, Roche, Germany) and incubated 30 min at 4° C. Cells were disrupted by nitrogen cavitation (Parr Instruments, USA) at 4° C. (800 p.s.i. for 30 min), and centrifuged at 500×g for 10 min at 4° C. Pellet containing nuclei and cellular debris was discarded and supernatant was centrifuged 60 min at 4° C. at 45000×g. Membrane pellet was re-suspended in storage buffer (10 mM HEPES/KOH pH 7.4, 1 mM EDTA, 250 mM sucrose, protease inhibitor cocktail tablets) using Dounce homogenization and frozen in liquid nitrogen, and stored at −80° C.
The inhibitory activity can be investigated by a radioligand binding assay (Sawyer et al., Br. J. Pharmocol 2002, 137, 1163-72). The radioligand binding assay was performed at room temperature in binding buffer (10 mM HEPES/KOH pH […], with protease inhibitor cocktail tablets), containing 1.5 nM [^3H]PGD2 (Amersham, 156 Cie/mmol), and 10 μg of hCRTH2 HEK293 (EBNA) cell membrane protein in a final volume of 100 μl in 96 well plates (Corning, USA). Non-specific binding was determined in the presence of 1 μM PGD2 (Cayman, USA). Competing spiro-indolinones were diluted in dimethylsulphoxide so that the total volume of dimethylsulfoxide was kept constant at 1% dimethylsulphoxide (Me2SO) Serial dilutions of 100 μM and […] were prepared. 10 μl each of these spiro-indolinone stock solutions were added. Incubation (60 min at room temperature) was terminated by rapid filtration through 96 wells hydrophobic GF/C Unifilter plates (Whatman, USA). Filters were washed twice with 250 μl of Tris-HCl pH 7.4, 10 mM MnCl2, and residual radioligand bound to the filters was mixed to 100 μl of liquid scintillation cocktail (Optiphase Supermix, Perkin Elmer, USA) and binding activity was determined by counting residual radioligand using a 1450 Micro-beta scintillation counter (Wallac, UK). The following representative compounds were tested. […]

| SMILES | inhibition [%] |
| --- | --- |
| C=CCN1C(=O)CC2(C1=O)C(=O)N(CCCC(=O)O)c1ccc(Cl)cc12 (stereo not shown) [4-(1′-allyl-5-chloro-2,2′,5′-trioxospiro[indole-3,3′-pyrrolidin]-1(2H)-yl)butanoic acid] | > 70 |
| C=CCN1C(=O)CC2(C1=O)C(=O)N(CCCC(=O)O)c1ccc(F)cc12 (stereo not shown) [4-(1′-allyl-5-fluoro-2,2′,5′-trioxospiro[indole-3,3′-pyrrolidin]-1(2H)-yl)butanoic acid] | > 70 |
| O=C(O)CCCN1C(=O)C2(CC(=O)N(Cc3ccccc3)C2=O)c2cc(Cl)ccc21 (stereo not shown) [4-(1′-benzyl-5-chloro-2,2′,5′-trioxospiro[indole-3,3′-pyrrolidin]-1(2H)-yl)butanoic acid] | > 70 |
